Reference: patent US20220395472A1 (Dermavant Sciences GmbH, priority 2021, published 2022)

System: adults with plaque psoriasis
Experiment: Long-term open-label extension study (PSOARING 3): Physician Global Assessment (PGA), treatment episodes, treatment success, remittive effect
Type: in vivo, human
Method: This extension study consisted of up to 40 weeks of treatment and a 4 week, safety follow up period.
At the completion of the Week 12 visit of the DB, pivotal Phase 3 study, eligibility of the subjects opting to enroll in this extension study was confirmed. Study visits during the treatment period for all subjects occurred every 4 weeks (±3 days). A phone call was performed at Week 2 (Day 15). Unscheduled visits may have occurred, as needed. Subjects who withdrew from this study before Week 40 returned to the study center for an Early Termination visit. The total duration of this extension study participation was 44 weeks. Subjects in this study were treated as follows based on their PGA score from the Week 12 visit in the DB, pivotal Phase 3 study (Study DMVT 505 3001 or Study DMVT 505 3002).
The PGA was used to assess the primary efficacy endpoint in this study. The PGA is a clinical tool for assessing the current state/severity of a subject's psoriasis at a given time point. It is a static, 5 point, morphological assessment of overall disease severity, as determined by the Investigator, using the clinical characteristics of erythema, scaling, and plaque thickness/elevation as guidelines; higher PGA scores represent more severe disease (0=clear, 1=almost clear, 2=mild, 3=moderate, and 4=severe). The BSA affected was not considered in scoring of the PGA. Variations of the PGA are frequently used in clinical studies because it is a simple assessment, similar to those used in clinical practice. The PGA was performed first, prior to the % BSA, PASI, and LTS assessments.
Time to event parameters, such as the time from treatment success to subsequent worsening (PGA≥2) or duration of treatment episode, were summarized by the Kaplan Meier product limit method using OC.

[1] = Baseline PGA = 3, Tapinarof (Pivotal) group
[2] = Baseline PGA = 3, Vehicle (Pivotal) group
[3] = Baseline PGA = 4, Tapinarof (Pivotal) group
[4] = Baseline PGA = 4, Vehicle (Pivotal) group

## CC(C)c1c(O)cc(/C=C/c2ccccc2)cc1O [Tapinarof, 3,5-Dihydroxy-4-isopropyl-trans-stilbene]
[1]
  Total Duration of Treatment Success, Mean (SD): 67.3 (54.20) days
  Total Duration of Treatment Success, Median: 56.5 days
[2]
  Average Duration of Episodes, Mean (SD): 174.0 (94.06) days
  Average Duration of Episodes, Median: 195.0 days
  Average Duration of Treatment Success, Mean (SD): 67.1 (57.99) days
  Average Duration of Treatment Success, Median: 51.0 days
  Duration of 1st Episode, Mean (SD): 177.1 (92.70) days
  Duration of 1st Episode, Median: 195.5 days
  Duration of 1st Success, Mean (SD): 70.3 (58.38) days
  Duration of 1st Success, Median: 56.0 days
  Duration of 2nd Episode, Mean (SD): 56.4 (37.29) days
  Duration of 2nd Episode, Median: 55.5 days
  Duration of 2nd Success, Mean (SD): 29.2 (18.23) days
  Duration of 2nd Success, Median: 28.0 days
  Duration of 3rd Episode, Mean (SD): 55.2 (27.44) days
  Duration of 3rd Episode, Median: 57.0 days
  Duration of 3rd Success, Mean (SD): 28.0 (NE) days
  Duration of 3rd Success, Median: 28.0 days
  Duration of 4th Episode, Mean (SD): 1.0 (NE) days
  Duration of 4th Episode, Median: 1.0 days
  Duration of Last Episode, Mean (SD): 171.4 (97.39) days
  Duration of Last Episode, Median: 195.0 days
  Duration of Last Success, Mean (SD): 63.8 (59.74) days
  Duration of Last Success, Median: 49.0 days
  Total Duration of Treatment Episodes, Mean (SD): 186.1 (87.86) days
  Total Duration of Treatment Episodes, Median: 197.5 days
  Total Duration of Treatment Success, Mean (SD): 77.4 (58.26) days
  Total Duration of Treatment Success, Median: 81.0 days
Baseline PGA = 4, Overall
  Average Duration of Episodes, Mean (SD): 187.5 (102.01) days
  Average Duration of Episodes, Median: 225.0 days
  Average Duration of Treatment Success, Mean (SD): 104.5 (56.36) days
  Average Duration of Treatment Success, Median: 93.0 days
  Duration of 1st Episode, Mean (SD): 187.4 (102.04) days
  Duration of 1st Episode, Median: 225.0 days
  Duration of 1st Success, Mean (SD): 104.5 (56.36) days
  Duration of 1st Success, Median: 93.0 days
  Duration of 2nd Episode, Mean (SD): 85.0 (NE) days
  Duration of 2nd Episode, Median: 85.0 days
  Duration of Last Episode, Mean (SD): 187.5 (101.99) days
  Duration of Last Episode, Median: 225.0 days
  Duration of Last Success, Mean (SD): 104.5 (56.36) days
  Duration of Last Success, Median: 93.0 days
  Total Duration of Treatment Episodes, Mean (SD): 191.1 (99.63) days
  Total Duration of Treatment Episodes, Median: 225.0 days
  Total Duration of Treatment Success, Mean (SD): 104.5 (56.36) days
  Total Duration of Treatment Success, Median: 93.0 days
[3]
  Average Duration of Episodes, Mean (SD): 132.9 (100.39) days
  Average Duration of Episodes, Median: 113.0 days
  Average Duration of Treatment Success, Mean (SD): 119.5 (79.90) days
  Average Duration of Treatment Success, Median: 119.5 days
  Duration of 1st Episode, Mean (SD): 132.9 (100.39) days
  Duration of 1st Episode, Median: 113.0 days
  Duration of 1st Success, Mean (SD): 119.5 (79.90) days
  Duration of 1st Success, Median: 119.5 days
  Duration of Last Episode, Mean (SD): 132.9 (100.39) days
  Duration of Last Episode, Median: 113.0 days
  Duration of Last Success, Mean (SD): 119.5 (79.90) days
  Duration of Last Success, Median: 119.5 days
  Total Duration of Treatment Episodes, Mean (SD): 132.9(100.39) days
  Total Duration of Treatment Episodes, Median: 113.0 days
  Total Duration of Treatment Success, Mean (SD): 119.5 (79.90) days
  Total Duration of Treatment Success, Median: 119.5 days
[4]
  Average Duration of Episodes, Mean (SD): 211.3 (96.08) days
  Average Duration of Episodes, Median: 267.0 days
  Average Duration of Treatment Success, Mean (SD): 89.5 (47.38) days
  Average Duration of Treatment Success, Median: 89.5 days
  Duration of 1st Episode, Mean (SD): 211.3 (96.13) days
  Duration of 1st Episode, Median: 267.0 days
  Duration of 1st Success, Mean (SD): 89.5 (47.38) days
  Duration of 1st Success, Median: 89.5 days
  Duration of 2nd Episode, Mean (SD): 85.0 (NE) days
  Duration of 2nd Episode, Median: 85.0 days
  Duration of Last Episode, Mean (SD): 211.4 (96.04) days
  Duration of Last Episode, Median: 267.0 days
  Duration of Last Success, Mean (SD): 89.5 (47.38) days
  Duration of Last Success, Median: 89.5 days
  Total Duration of Treatment Episodes, Mean (SD): 216.6 (90.82) days
  Total Duration of Treatment Episodes, Median: 267.0 days
  Total Duration of Treatment Success, Mean (SD): 89.5 (47.38) days
  Total Duration of Treatment Success, Median: 89.5 days
Baseline, Overall
  PGA 0 - Clear: 78 (10.3) n (%)
  PGA 1 - Almost Clear: 161 (21.2) n (%)
  PGA 2 - Mild: 248 (32.7) n (%)
